# Experimental data reported in article PMC5598064 (Cardiovascular Diabetology, 2017).
# Where two headings read alike, the source gives them in different places.
# What was measured:
# healthy individuals [1] = settings: for concentration-dependent effect on QTcP: in vivo
# Excerpt: (§1) In a randomized, double-blind, 4-period, 4-treatment, cross-over tQTc study, healthy individuals were randomized to one of four treatment sequence groups. […] Serial blood samples for pharmacokinetic analysis were collected on day 4 of each period.
# To account for the high degree of correlation between heart rate and QT interval, various correction formulae, including Bazett’s formula (QTcB), Fridericia’s formula (QTcF), QT interval corrected for heart rate (QTc) based on linear population-based analysis (QTcP), and QT interval corrected for heart rate based on log-linear population-based analysis (QTcLogP) were applied to obtain a QT interval independent of heart rate.
# [2] = healthy individuals, saxagliptin 5 mg, highest recommended therapeutic dose; cited from earlier work
# healthy individuals [3] = settings: in vivo
# Description: (§2) All doses were administered 1 h before consumption of a standard American Heart Association Step 1 diet (≤30% of calories from fats) or a standard liquid meal on days 8 and 13 (BoostPlus®; Nestlé). […] Vital sign and 12-lead ECG measurements were collected at screening, at various times throughout the study, and at discharge. Multiple blood samples for pharmacokinetic analysis were collected on days 1–2 and 14–15.
# healthy individuals [4] = settings: in vivo, po
# Description: (§3) Participants who were randomized to 75 or 100 mg received their second dose 30 min before consuming the high fat breakfast. Vital sign and 12-lead electrocardiogram (ECG) measurements were collected at screening, at various times throughout the study, and at discharge.
# rodents and non-rodents = settings: in vivo, po
# [5] = test system: healthy participants and patients with T2D; settings: human, in vivo
# Description: as §3, §2, §1
# In a randomized, placebo-controlled, sequential MAD study, 40 patients with T2D were randomized to receive 2.5, 5, 15, 30, or 50 mg/day or matching placebo for 14 days. All doses were administered after consumption of a standard breakfast. […] Vital sign measurements and 12-lead ECG measurements were collected at screening, at various times throughout the study, and at discharge. Serial blood samples for pharmacokinetic analysis were collected on days 1, 7, and 14.
# rabbit Purkinje fibers = settings: mean (SEM)
# [6] = biological target: PDE (phosphodiesterase-3); assay: Radioligand binding, cardiovascular-related targets; settings: antagonism of radioligand binding; read-out: IC50 or EC50
# rat = settings: in vivo, iv, 5.9 mg/kg
# L type Ca^2+ = assay: Radioligand binding, cardiovascular-related targets; settings: antagonism of radioligand binding; read-out: IC50 or EC50
# Cardiac hNAV1.5 = Cardiac hNAV1.5 (Homo sapiens, UniProt Q14524); assay: as above
# Chain of Cardiac hNAV1.5 (Q14524 whole entry): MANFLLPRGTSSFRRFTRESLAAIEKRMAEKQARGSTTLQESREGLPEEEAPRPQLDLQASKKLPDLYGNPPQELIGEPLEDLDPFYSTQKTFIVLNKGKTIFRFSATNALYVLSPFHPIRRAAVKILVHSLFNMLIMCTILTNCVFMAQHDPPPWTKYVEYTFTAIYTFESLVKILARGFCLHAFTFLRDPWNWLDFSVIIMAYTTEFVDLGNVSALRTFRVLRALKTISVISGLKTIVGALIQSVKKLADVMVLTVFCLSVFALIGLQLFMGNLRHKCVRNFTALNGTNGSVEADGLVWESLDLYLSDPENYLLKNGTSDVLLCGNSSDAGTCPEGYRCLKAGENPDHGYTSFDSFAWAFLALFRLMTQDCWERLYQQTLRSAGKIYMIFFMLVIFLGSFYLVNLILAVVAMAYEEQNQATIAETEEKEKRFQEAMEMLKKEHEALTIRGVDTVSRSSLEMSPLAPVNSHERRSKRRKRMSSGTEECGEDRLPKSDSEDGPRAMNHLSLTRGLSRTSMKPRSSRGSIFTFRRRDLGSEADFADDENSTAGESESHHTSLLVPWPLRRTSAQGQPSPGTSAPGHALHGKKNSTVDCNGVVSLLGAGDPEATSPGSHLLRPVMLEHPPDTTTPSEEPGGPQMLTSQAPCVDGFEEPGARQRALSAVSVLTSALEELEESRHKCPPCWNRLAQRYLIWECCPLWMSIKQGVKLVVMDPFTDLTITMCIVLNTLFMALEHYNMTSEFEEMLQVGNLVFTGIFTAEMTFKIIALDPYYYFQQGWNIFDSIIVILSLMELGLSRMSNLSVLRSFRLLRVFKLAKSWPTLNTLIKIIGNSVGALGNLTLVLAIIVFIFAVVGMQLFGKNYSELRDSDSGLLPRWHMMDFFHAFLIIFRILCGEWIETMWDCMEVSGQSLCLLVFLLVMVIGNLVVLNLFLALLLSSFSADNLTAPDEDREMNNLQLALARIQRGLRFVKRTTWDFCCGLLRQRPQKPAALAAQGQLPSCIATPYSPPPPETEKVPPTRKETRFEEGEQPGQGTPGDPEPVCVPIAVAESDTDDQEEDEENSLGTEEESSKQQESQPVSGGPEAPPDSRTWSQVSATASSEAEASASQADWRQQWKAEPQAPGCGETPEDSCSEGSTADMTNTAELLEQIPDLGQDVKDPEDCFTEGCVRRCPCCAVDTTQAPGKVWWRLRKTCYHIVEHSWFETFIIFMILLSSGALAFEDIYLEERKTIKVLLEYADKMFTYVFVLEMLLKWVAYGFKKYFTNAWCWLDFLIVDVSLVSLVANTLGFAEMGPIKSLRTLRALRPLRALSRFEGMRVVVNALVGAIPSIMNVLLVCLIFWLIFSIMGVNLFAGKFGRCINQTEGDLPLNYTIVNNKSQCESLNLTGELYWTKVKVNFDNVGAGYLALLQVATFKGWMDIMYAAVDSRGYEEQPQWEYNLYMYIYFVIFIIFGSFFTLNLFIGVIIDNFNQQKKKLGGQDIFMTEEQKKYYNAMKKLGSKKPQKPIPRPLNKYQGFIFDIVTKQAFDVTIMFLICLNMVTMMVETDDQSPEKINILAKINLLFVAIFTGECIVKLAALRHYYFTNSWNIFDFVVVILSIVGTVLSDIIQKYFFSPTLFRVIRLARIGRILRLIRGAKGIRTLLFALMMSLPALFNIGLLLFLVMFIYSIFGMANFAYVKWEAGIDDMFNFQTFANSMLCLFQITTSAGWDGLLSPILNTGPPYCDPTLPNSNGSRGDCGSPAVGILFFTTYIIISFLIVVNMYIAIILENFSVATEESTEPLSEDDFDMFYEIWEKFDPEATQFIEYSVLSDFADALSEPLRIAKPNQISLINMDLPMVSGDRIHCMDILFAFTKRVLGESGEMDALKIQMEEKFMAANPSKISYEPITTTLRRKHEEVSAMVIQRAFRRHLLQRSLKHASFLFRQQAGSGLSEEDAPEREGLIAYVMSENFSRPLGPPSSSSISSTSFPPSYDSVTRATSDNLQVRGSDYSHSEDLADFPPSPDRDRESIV
# dogs = settings: dog, in vivo
# ACE = assay: Radioligand binding, cardiovascular-related targets
# Chain of ACE (P22303 32-614, species assumed): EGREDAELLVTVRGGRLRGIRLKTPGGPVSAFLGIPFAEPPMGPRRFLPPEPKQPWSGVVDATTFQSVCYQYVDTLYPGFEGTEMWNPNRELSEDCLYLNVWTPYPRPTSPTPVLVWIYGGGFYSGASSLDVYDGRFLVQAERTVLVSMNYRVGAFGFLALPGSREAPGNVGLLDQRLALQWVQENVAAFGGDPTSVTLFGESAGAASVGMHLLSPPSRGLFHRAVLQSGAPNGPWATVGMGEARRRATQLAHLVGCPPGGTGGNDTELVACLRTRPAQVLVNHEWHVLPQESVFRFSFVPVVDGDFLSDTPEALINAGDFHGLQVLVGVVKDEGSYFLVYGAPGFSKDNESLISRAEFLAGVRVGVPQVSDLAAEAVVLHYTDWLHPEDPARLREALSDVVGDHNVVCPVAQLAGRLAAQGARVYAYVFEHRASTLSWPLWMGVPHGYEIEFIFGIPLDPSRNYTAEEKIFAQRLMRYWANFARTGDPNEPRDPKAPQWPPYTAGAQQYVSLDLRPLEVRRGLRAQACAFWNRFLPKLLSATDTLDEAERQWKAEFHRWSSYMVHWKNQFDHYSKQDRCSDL
# GABA-A α1B2γ2 = GABA-A α1B2γ2 (Homo sapiens, UniProt P14867+P18507+P47870); assay: as above
# Chain of GABA-A α1B2γ2 (P14867 28-456): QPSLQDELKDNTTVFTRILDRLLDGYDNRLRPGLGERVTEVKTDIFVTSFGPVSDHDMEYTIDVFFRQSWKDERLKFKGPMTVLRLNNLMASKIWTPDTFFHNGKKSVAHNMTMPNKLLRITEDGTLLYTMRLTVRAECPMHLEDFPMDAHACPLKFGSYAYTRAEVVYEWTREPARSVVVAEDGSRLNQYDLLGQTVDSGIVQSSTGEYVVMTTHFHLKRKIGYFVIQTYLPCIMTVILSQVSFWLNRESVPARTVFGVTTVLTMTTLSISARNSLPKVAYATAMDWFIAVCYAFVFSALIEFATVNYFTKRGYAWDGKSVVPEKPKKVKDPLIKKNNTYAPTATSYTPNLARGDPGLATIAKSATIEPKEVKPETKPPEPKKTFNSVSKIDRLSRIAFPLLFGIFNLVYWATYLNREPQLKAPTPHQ
# Chain of GABA-A α1B2γ2 (P47870 25-512 limits assumed): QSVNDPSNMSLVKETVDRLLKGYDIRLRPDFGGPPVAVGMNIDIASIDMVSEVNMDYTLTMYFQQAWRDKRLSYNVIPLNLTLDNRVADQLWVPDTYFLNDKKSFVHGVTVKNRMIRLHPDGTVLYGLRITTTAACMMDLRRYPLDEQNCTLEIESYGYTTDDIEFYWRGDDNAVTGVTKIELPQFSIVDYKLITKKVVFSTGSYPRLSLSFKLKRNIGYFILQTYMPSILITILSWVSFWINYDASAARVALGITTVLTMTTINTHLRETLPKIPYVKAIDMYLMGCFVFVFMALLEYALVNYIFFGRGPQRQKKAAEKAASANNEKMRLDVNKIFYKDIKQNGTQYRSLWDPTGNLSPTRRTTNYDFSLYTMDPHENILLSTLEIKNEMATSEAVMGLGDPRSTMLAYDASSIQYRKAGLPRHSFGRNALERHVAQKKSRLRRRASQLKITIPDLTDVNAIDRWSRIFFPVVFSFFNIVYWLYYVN
# Chain of GABA-A α1B2γ2 (P18507 40-475): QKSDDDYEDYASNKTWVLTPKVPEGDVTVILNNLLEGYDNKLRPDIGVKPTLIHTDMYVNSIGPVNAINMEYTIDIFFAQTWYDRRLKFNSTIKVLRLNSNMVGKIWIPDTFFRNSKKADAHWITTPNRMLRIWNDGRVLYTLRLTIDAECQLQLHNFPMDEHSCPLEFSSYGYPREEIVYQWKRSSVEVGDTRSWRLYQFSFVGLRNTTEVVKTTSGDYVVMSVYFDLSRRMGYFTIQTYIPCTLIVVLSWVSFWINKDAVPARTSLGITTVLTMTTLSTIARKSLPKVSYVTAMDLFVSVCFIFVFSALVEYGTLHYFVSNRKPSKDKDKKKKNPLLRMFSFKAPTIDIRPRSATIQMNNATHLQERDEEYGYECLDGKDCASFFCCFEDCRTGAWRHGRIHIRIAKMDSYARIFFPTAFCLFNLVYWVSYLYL
# [7] = test system: receptors, ion channels, and enzymes; assay: Radioligand binding panel, all targets assessed; settings: 10 μM
# Muscarinic M2 = biological target: T1, Muscarinic M2 (Homo sapiens, UniProt P08172); assay: Radioligand binding, cardiovascular-related targets
# T1 sequence (P08172 1-466): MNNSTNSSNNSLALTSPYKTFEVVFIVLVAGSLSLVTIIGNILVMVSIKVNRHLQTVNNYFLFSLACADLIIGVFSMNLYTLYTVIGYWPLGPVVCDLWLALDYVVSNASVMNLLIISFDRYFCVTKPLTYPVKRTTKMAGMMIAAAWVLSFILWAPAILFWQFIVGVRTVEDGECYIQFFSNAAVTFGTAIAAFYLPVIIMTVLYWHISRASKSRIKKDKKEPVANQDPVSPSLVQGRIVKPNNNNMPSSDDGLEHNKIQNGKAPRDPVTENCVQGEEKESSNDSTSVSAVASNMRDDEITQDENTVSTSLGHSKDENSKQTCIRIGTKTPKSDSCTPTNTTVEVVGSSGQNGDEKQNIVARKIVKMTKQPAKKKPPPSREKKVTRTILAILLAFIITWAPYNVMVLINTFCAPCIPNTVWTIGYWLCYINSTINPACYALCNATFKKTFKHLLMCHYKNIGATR
# monkeys = settings: monkey, in vivo
# dog = settings: in vivo, iv, 5.9 mg/kg
# Adrenergic α1β = biological target: T2, Adrenergic α1β (Homo sapiens, UniProt P35368); assay: Radioligand binding, cardiovascular-related targets
# T2 sequence (P35368 1-520): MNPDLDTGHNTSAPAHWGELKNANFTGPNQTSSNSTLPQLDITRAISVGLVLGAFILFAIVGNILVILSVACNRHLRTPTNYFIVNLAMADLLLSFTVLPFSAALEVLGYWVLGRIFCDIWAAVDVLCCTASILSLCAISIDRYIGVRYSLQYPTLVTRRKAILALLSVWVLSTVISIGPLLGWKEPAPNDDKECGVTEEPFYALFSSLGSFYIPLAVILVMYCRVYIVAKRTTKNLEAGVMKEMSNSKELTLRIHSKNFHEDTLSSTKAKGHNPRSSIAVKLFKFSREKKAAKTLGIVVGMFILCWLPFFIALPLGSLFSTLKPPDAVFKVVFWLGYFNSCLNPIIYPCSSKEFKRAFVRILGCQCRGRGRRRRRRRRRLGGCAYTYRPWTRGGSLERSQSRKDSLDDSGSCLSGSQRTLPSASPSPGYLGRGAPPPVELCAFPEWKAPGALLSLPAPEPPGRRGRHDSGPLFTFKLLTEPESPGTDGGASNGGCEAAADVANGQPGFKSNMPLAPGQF
molecule,measurement,setting,value
COc1c(N2C[C@@H]3CCCN[C@@H]3C2)c(F)cc2c(=O)c(C(=O)O)cn(C3CC3)c12 [moxifloxacin],"maximum placebo-adjusted, time-matched change from baseline in QTcP","healthy individuals [1]; 400 mg, 4 h after dosing",12.52 ms
same,one-sided lower 95% confidence bound of QTcP change at time of maximum effect,"healthy individuals [1]; 400 mg, 4 h after dosing",7.83 ms
same,individuals with QTcP change from baseline >30 ms,healthy individuals [1]; after treatment with placebo and moxifloxacin,1
5-hydroxy saxagliptin,maximum plasma concentration,[2],0.047 µg/mL
same,pharmacokinetics versus dose,healthy individuals [3],appeared linear with respect to dose
same,dose excreted (renal excretion),healthy individuals [4],~40%
same,mean renal clearance versus mean GFR,healthy individuals [4],did not exceed mean GFR
same,plasma exposures versus dose,healthy individuals [4],generally increased proportionally with dose
same,concentration-dependent effect on QTcP,healthy individuals [1],no concentration-dependent effect
N#C[C@@H]1C[C@@H]2C[C@@H]2N1C(=O)[C@@H](N)C12CC3CC(CC(O)(C3)C1)C2 [saxagliptin],multiples of human exposures based on AUC,rodents and non-rodents,up to 2200 times
same,effect on vital sign measurements,[5],no effect
same,marked abnormalities in AST,[5],No marked abnormalities
same,APD50,rabbit Purkinje fibers; 3 μM,149 (24) ms
same,APD50 % Change,rabbit Purkinje fibers; 3 μM,0 (0) %
same,APD90,rabbit Purkinje fibers; 3 μM,235 (11) ms
same,APD90 % Change,rabbit Purkinje fibers; 3 μM,2 (1) %
same,Maximum upstroke velocity (Vmax),rabbit Purkinje fibers; 3 μM,446 (15) v/s
same,Maximum upstroke velocity (Vmax) % Change,rabbit Purkinje fibers; 3 μM,−5 (3) %
same,Overshoot,rabbit Purkinje fibers; 3 μM,29 (4) mV
same,Overshoot % Change,rabbit Purkinje fibers; 3 μM,−7 (12) %
same,Resting Membrane Potential,rabbit Purkinje fibers; 3 μM,−84 (1) mV
same,Resting Membrane Potential % Change,rabbit Purkinje fibers; 3 μM,0 (1) %
same,APD50,rabbit Purkinje fibers; 10 μM,153 (26) ms
same,APD50 % Change,rabbit Purkinje fibers; 10 μM,2 (1) %
same,APD90,rabbit Purkinje fibers; 10 μM,237 (14) ms
same,APD90 % Change,rabbit Purkinje fibers; 10 μM,2 (1) %
same,Maximum upstroke velocity (Vmax),rabbit Purkinje fibers; 10 μM,462 (21) v/s
same,Maximum upstroke velocity (Vmax) % Change,rabbit Purkinje fibers; 10 μM,−2 (3) %
same,Overshoot,rabbit Purkinje fibers; 10 μM,32 (4) mV
same,Overshoot % Change,rabbit Purkinje fibers; 10 μM,1 (11) %
same,Resting Membrane Potential,rabbit Purkinje fibers; 10 μM,−86 (1) mV
same,Resting Membrane Potential % Change,rabbit Purkinje fibers; 10 μM,2 (2) %
same,APD50,rabbit Purkinje fibers; 30 μM,152 (21) ms
same,APD50 % Change,rabbit Purkinje fibers; 30 μM,3 (4) %
same,APD90,rabbit Purkinje fibers; 30 μM,239 (11) ms
same,APD90 % Change,rabbit Purkinje fibers; 30 μM,3 (2) %
same,Maximum upstroke velocity (Vmax),rabbit Purkinje fibers; 30 μM,437 (13) v/s
same,Maximum upstroke velocity (Vmax) % Change,rabbit Purkinje fibers; 30 μM,−7 (5) %
same,Overshoot,rabbit Purkinje fibers; 30 μM,29 (5) mV
same,Overshoot % Change,rabbit Purkinje fibers; 30 μM,−7 (14) %
same,Resting Membrane Potential,rabbit Purkinje fibers; 30 μM,−85 (2) mV
same,Resting Membrane Potential % Change,rabbit Purkinje fibers; 30 μM,1 (3) %
same,IC50,[6],> 30 µM
same,adverse effects,rat,no adverse effects
same,IC50,L type Ca^2+,> 25 µM
same,IC50,Cardiac hNAV1.5,> 30 µM
same,heart weight,dogs,No increase
same,Cmax exposure multiple of the 5 mg clinical dose,dogs; po,≤ 750 times
same,IC50,ACE,> 60 µM
same,IC50,GABA-A α1B2γ2,> 30 µM
same,inhibition on any targets assessed,[7],< 25%
same,IC50,Muscarinic M2,> 30 µM
same,Cmax exposure multiple of Cmax at the 5 mg oral human dose,monkeys; 3.4 mg/kg,280 times
same,adverse effects,"monkeys; iv, 0.225 mg/kg",No adverse effects
same,decreased blood pressure (reductions),"monkeys; iv, 3.4 mg/kg",< 40 mmHg
same,adverse effects,dog,no adverse effects
same,IC50,Adrenergic α1β,> 30 µM
same,dose excreted (renal excretion),healthy individuals [4]; human,approximately 20%
same,mean renal clearance versus mean GFR,healthy individuals [4],exceeded mean GFR
same,plasma exposures versus dose,healthy individuals [4],generally increased proportionally with dose
same,concentration-dependent effect on QTcP,healthy individuals [1],no concentration-dependent effect
